Test results from patent US20230172894A1, “COMBINATION TREATMENT FOR FUMARATE-RELATED DISEASES” (IMCYSE SA, priority 2020, published 2023).
Where two headings read alike, the source gives them in different places. No end group written: not given here.

Columns and labels:
[1] = system: experimental auto-immune encephalomyelitis (EAE) development in mice; conditions: Example 2, 16 mice per group
Description: (§1) Example 2: Effect of the therapeutic administration of an immunogenic peptide comprising a MOG35-55 MHCII T cell epitope linked or not to an HCPYC oxidoreductase motif in combination with dimethyl fumarate (BG-12, […]™) on experimental auto-immune encephalomyelitis (EAE) development in mice.
The study used a total of 96 female C57BL/6 mice (Taconic Biosciences, 10 weeks old on Day 0). Mice were acclimated for 14 days prior to the first injection. Mice were assigned to groups in a balanced manner to achieve similar average weight across the groups at the start of the study.
(§2) Treatment 1 was administered once on each of the days indicated in Table 3, s.c., at a volume of 0.05 mL/site, each mouse receiving injection at two sites, for a total of 0.1 mL/mouse/dosing day. IMCY-0189 or MOG35-55 peptide total dose was 30 μg per administration.
(§3) BG-12 was dosed at 100 mg/kg.
(§4) All dosing were done at the same time (+/−1 hour) each dosing day. For the BID groups there were no less than 10 and no more than 14 hours between doses.
Lyophilized mouse MOG35-55 peptide with the sequence […] (SEQ ID NO:205), comprising the mouse Myelin Oligodendrocyte Glycoprotein (MOG35-55) MHCII T cell epitope […] (SEQ ID NO:169), was solubilized immediately before use. Lyophilized MOG35-55 peptide was thawed at room temperature for 10 minutes, resuspended in Na Acetate buffer 50 mM NaCl 0.9% pH 5.4 and incubated at room temperature for 10 minutes. Reconstituted MOG35-55 peptide was then mixed with Imject™ Alum Adjuvant before injection. Note that the positions 35 to 55 refer to the mature protein, i.e. after cleavage of the signal peptide (AA 1-29), defined by SEQ ID NO: 208. In the full-length amino acid sequence of MOG (SEQ ID NO: 184), said peptide would be at positions 64-84.
Lyophilized IMCY-0189 was thawed at room temperature for 10 minutes, resuspended in Na Acetate buffer 50 mM NaCl 0.9% pH 5.4 and incubated at room temperature for 10 minutes. Reconstituted peptide was then mixed with Imject™ Alum Adjuvant before injection.
For Treatment 2, vehicle was 0.5% HPMC, 0.2% Tween 20, and 50 mM citrate buffer at pH 4. BG-12 (Santa Cruz Biotechnology, sc-239774) and was prepared at least every 2 weeks. At each preparation the required amount of BG-12 was weighed out into a mortar and triturated with a pestle. Vehicle was then added in small increments and mixed until the final volume was reached. The material was then vortexed and sonicated in a water bath until a homogeneous suspension was obtained. Formulated BG-12 was stored at 4° C., stirring continuously.
EAE induction, scoring and statistical analysis were performed as described in example 1.
(§5) EAE development was evaluated by comparing clinical EAE readouts for all groups to the negative control (Saline/Vehicle) group.

[2] = system: experimental auto-immune encephalomyelitis (EAE) development in mice; conditions: Example 3; for mice died in group: 16 mice per group; for disease onset: peptide 30 μg/Alum s.c. days 4, 9, 14, 19, BG-12 100 mg/kg p.o. BID days 0 to 27; for disease onset / AUC (area under the curve) of EAE scores / MMS (mean maximal score) / end score (clinical EAE score 0-5): vs negative control
Description: as §1, with “3:” for “2:”, “linked to a KCRC (SEQ ID NO: 65)” for “linked”, “KCRPYC (SEQ ID NO: 84)” for “not to an HCPYC”
The study used a total of 128 female C57BL/6 mice (Taconic Biosciences, 9 weeks old on Day 0). Mice were acclimated for 7 days prior to the first injection. Mice were assigned to groups in a balanced manner to achieve similar average weight across the groups at the start of the study.
as §2, with “4,” for “3,”, “IMCY-0189 (CXXC oxidoreductase motif, IMCY-0453 (CXC oxidoreductase motif)” for “IMCY-0189”, “IMCY-0455 (CXXXC oxidoreductase motif)” for “MOG35-55”
as §3, §4
(§6) (SEQ ID NO: 266), comprising an oxidoreductase motif KCRC (SEQ ID NO: 65), a linker GW, a murine Myelin Oligodendrocyte Glycoprotein (MOG35-55) MHCII T cell epitope […] (SEQ ID NO: 169) and a flanking sequence HLYR (SEQ ID NO: 186) (Smart Bioscience) was solubilized immediately before use. Lyophilized IMCY-0453 was thawed at room temperature for 10 minutes, resuspended in Na Acetate buffer 50 mM NaCl 0.9% pH 5.4 and incubated at room temperature for 10 minutes. Reconstituted peptide was then mixed with Imject™ Alum Adjuvant before injection.
as §6, with “268),” for “266),”, “KCRPYC” for “KCRC”, “84),” for “65),”, “IMCY-0455” for “IMCY-0453”
(§7) Treatment 2 was prepared as described in example 2.
EAE induction, scoring and statistical analysis were performed as described in example
as §5

[3] = system: experimental auto-immune encephalomyelitis (EAE) development in mice; assay: Example 3: serum neurofilament light (NF-L) levels in EAE mice; type: in vivo, female C57BL/6 mice; conditions: Day 28 serum, vs negative control
Procedure: On Day 28, blood was collected from all mice into gel clot activator tubes and allowed to clot at room temperature for ˜30 minutes. Blood is then centrifuged at ˜10000 g for 5 minutes. Serum was transferred into Eppendorf tubes and stored at −80° C. until shipment to Quanterix™. Serum Neurofilament light (NF-L) protein levels were quantified using Simoa® NF-light Advantage kit as described in example 1.

[4] = system: experimental auto-immune encephalomyelitis (EAE) development in mice; conditions: Example 4; 16 mice per group
Description: Example 4: Effect of the therapeutic administration of an immunogenic peptide comprising a human MOG201-212 MHCII T cell epitope linked to a KHCPYC oxidoreductase motif in combination with dimethyl fumarate (BG-12, […]™) on experimental auto-immune encephalomyelitis (EAE) development in mice.
The study used a total of 96 female C57BL/6 mice (Taconic Biosciences, 9 weeks old on Day 0). Mice were acclimated for 7 days prior to the first injection. Mice were assigned to groups in a balanced manner to achieve similar average weight across the groups at the start of the study.
Treatment 1 was administered once on each of the days indicated in Table 5, s.c., at a volume of 0.05 mL/site, each mouse receiving injection at two sites, for a total of 0.1 mL/mouse/dosing day. IMCY-0189 or P4 peptide total dose was 30 μg per administration.
as §3, §4
Lyophilized immunogenic peptide P4 with the sequence […] (SEQ ID NO: 176), comprising an oxidoreductase motif KHCPYC (SEQ ID NO: 77), a linker VRY, a human Myelin Oligodendrocyte Glycoprotein (MOG201-212) MHCII T cell epitope […] (SEQ ID NO: 165) and a flanking sequence TLFKK (SEQ ID NO: 267) (Smart Bioscience) was solubilized immediately before use. Lyophilized P4 was thawed at room temperature for 10 minutes, resuspended in Na Acetate buffer 50 mM NaCl 0.9% pH 5.4 and incubated at room temperature for 10 minutes. Reconstituted peptide was then mixed with Imject™ Alum Adjuvant before injection.
as §7
EAE induction, scoring and statistical analysis were performed as described in example 2.
as §5

Compound	mice died in group [1]	mice died in group ([1]; listed as MOG35-55/Vehicle) [mice]	mice died in group [2] [mice]	disease onset [2]	AUC (area under the curve) of EAE scores [2]	MMS (mean maximal score) [2]	end score (clinical EAE score 0-5) [2]	serum NF-L levels [3]	mice died in group [4]
MEVGWYRSPFSRVVHLYRNGK [MOG35-55 peptide]	No mice died	2							
KCRPYCGWYRSPFSRVVHLYR [IMCY-0455]			1	statistically significantly improved	statistically significantly improved	statistically significantly improved	statistically significantly improved	statistically significant reduced NF-L levels	
CC[C@H](C)[C@H](NC(=O)[C@H](CCCCN)NC(=O)[C@H](Cc1c[nH]c2ccccc12)NC(=O)[C@H](CO)NC(=O)[C@@H]1CCCN1C(=O)[C@@H](NC(=O)[C@H](CCCNC(=N)N)NC(=O)[C@H](CC(C)C)NC(=O)[C@H](Cc1ccccc1)NC(=O)[C@H](Cc1ccc(O)cc1)NC(=O)[C@H](CCCNC(=N)N)NC(=O)[C@@H](NC(=O)[C@H](CS)NC(=O)[C@H](Cc1ccc(O)cc1)NC(=O)[C@@H]1CCCN1C(=O)[C@H](CS)NC(=O)[C@H](Cc1c[nH]cn1)NC(=O)[C@@H](N)CCCCN)C(C)C)C(C)C)C(=O)N[C@H](C(=O)N[C@@H](CC(C)C)C(=O)N[C@@H](Cc1ccccc1)C(=O)N[C@@H](CCCCN)C(=O)N[C@@H](CCCCN)C(=O)O)[C@@H](C)O [P4]									No mice died
KCRCGWYRSPFSRVVHLYR [IMCY-0453]			1	statistically significantly improved	statistically significantly improved	statistically significantly improved	statistically significantly improved	statistically significant reduced NF-L levels	
